The test system of one test is PFK. On the set-up: key to Effect (activator or inhibitor of PFK): “+” indicates activator; “-“ indicates inhibitor. The conditions noted are these: cited from earlier work; for Effect (activator or inhibitor of PFK): published literature, ref selected references in Supplementary Table 1.
The test system of another test is PFKL. The conditions noted are these: ref Van Schaftingen et al 1981; cited from earlier work.
The test system of the next test is PFKM. The conditions noted are these: PFKM; ref Sanchez-Martinez et al., 2000; read-out: Kact; cited from earlier work.
For the next test, the target named is T1, recombinant human PFK-L (Homo sapiens, UniProt P17858).
T1 construct: made in house; host or cells: PFK-deficient Saccharomyces cerevisiae
T1 sequence (P17858 1-780): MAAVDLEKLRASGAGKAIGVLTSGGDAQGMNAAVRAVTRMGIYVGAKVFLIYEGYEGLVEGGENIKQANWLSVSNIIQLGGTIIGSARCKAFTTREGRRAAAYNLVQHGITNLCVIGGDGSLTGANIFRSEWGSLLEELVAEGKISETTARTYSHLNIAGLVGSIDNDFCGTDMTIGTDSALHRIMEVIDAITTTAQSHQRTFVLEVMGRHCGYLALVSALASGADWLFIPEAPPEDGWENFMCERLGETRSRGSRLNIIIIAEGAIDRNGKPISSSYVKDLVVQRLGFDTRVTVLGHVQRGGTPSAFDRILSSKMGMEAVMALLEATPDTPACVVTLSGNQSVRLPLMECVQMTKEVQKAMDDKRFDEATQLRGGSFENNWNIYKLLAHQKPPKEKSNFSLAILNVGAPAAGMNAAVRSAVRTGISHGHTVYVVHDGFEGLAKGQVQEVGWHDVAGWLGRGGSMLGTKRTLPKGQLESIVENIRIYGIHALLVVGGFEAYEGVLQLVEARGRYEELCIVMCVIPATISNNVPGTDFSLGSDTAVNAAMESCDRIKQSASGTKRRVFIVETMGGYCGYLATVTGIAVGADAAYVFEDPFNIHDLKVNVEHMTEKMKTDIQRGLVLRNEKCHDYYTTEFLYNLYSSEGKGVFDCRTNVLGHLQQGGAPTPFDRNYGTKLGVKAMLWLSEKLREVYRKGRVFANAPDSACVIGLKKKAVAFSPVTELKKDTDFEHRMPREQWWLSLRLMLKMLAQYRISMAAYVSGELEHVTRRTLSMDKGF
The test is described as follows: ALDO-TIM-G3PDH enzyme-linked kinetic assay, PFK-L. It is filed as biochemical. Particulars: PFK-L, modulator 1100 µM. The protocol:
(§1) Recombinant human PFKs were expressed in PFK-deficient Saccharomyces cerevisiae and purified using the methods described previously, adapting earlier materials and protocols. Production of PFK intended for use in ATP titration experiments used 1 mM F6P as a tetramer stabilising agent in protein purification and storage buffers. Production of PFK intended for use in F6P titration experiments used 1 mM ATP as a tetramer stabilising agent in protein purification and storage buffers. Experimental details on the purification and characterisation procedures including figures showing SDS–PAGE gels of the highly pure PFKs used in the kinetic experiments described in this work have been recently published.
(§2) Assay buffer consisted of 50 mM TEA, 100 mM KCl, 10 mM MgCl2, 1 mM Tris(2-carboxyethyl)phosphine hydrochloride (TCEP), 10% glycerol, pH 7.4. Assay mix consisted of 5 units/ml glycerol-3-phosphate dehydrogenase (G3PDH, Sigma–Aldrich G6880), 2.5 units/ml aldolase (Sigma–Aldrich A2714), 25 units/ml triosephosphate isomerase (TIM, Sigma–Aldrich T6258), and 1.25 mM NADH. ATP and F6P were obtained from Sigma–Aldrich (A2383 and F3627, respectively). For ATP titrations, 38 µl of buffer or ligand were added to a clear non-binding 96-well plate. 40 µl of assay mix containing 10 mM F6P (final concentration 4 mM) was added and the plate was incubated at 25°C for 5 min. An amount of 2 µl of PFK isoforms were added to each well from stock concentrations of 150 µg/ml and the reaction was immediately started with 20 µl of ATP at varying concentrations. For F6P titrations, 30 µl of buffer or ligand was added to a clear non-binding 96-well plate. An amount of 40 µl of assay mix containing 1.25 mM ATP (final concentration 0.5 mM) was added and the plate was incubated at 25°C for 5 min. An amount of 5 µl of PFK isoforms were added to each well from stock concentrations of 200 µg/ml and the reaction was immediately started with 20 µl F6P at varying concentrations. All ligands and substrates (including ATP) were used at pH 7.4. All metabolites were obtained from Sigma–Aldrich unless otherwise stated. […] A SpectraMax M5 Multi-Mode Microplate Reader was used to measure A340nm at 13 s intervals for 10 min. All experiments were performed in triplicate unless otherwise stated.
(§3) Time-dependent absorbance change was converted into rate of NADH oxidation (µM s^−1) or specific activity (µmol min^−1 mg protein^−1) using the Beer-Lambert law (molar extinction coefficient of NADH 6.22 mM^−1 cm^−1). The initial rate of reaction was used to avoid accumulation of ADP, which activates PFK, interfering with the determination of kinetic properties. Non-linear regression analysis was performed on substrate titration data using GraphPad Prism 7, with curves fitted using allosteric sigmoidal models, enabling determination of steady-state kinetic values.

Another test concerns the target T2, recombinant human PFK-M (Homo sapiens, UniProt P08237).
T2 construct: made in house; host or cells: PFK-deficient Saccharomyces cerevisiae
T2 sequence (P08237 1-780): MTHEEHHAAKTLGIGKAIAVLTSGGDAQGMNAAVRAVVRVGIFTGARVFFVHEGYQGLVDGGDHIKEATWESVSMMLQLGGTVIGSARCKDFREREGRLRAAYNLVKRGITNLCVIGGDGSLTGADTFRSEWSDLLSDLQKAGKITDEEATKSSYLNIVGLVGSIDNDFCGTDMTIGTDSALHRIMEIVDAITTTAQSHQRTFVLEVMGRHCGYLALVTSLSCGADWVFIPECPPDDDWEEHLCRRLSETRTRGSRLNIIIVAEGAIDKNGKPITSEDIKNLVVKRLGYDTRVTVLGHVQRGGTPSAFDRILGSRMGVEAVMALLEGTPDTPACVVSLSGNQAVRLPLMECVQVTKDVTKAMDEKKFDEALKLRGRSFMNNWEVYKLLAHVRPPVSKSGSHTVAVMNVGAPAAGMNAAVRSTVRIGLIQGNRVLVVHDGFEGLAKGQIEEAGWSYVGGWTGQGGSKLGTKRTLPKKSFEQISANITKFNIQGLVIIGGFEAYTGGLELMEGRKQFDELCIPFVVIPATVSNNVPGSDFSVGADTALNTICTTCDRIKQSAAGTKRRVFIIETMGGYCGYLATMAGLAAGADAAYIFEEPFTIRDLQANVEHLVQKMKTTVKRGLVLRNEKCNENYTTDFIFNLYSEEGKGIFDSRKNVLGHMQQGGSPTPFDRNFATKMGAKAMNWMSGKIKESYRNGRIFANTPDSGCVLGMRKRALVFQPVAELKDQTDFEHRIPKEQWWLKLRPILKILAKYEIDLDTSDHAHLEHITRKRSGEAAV
The test is described as follows: ALDO-TIM-G3PDH enzyme-linked kinetic assay, PFK-M. It is filed as biochemical. The conditions noted are these: modulator 1100 µM. As for the experimental part: as §1, §2, §3

The target of the next test is T3, recombinant human PFK-P (Homo sapiens, UniProt Q01813).
T3 construct: made in house; host or cells: PFK-deficient Saccharomyces cerevisiae
T3 sequence (Q01813 1-784): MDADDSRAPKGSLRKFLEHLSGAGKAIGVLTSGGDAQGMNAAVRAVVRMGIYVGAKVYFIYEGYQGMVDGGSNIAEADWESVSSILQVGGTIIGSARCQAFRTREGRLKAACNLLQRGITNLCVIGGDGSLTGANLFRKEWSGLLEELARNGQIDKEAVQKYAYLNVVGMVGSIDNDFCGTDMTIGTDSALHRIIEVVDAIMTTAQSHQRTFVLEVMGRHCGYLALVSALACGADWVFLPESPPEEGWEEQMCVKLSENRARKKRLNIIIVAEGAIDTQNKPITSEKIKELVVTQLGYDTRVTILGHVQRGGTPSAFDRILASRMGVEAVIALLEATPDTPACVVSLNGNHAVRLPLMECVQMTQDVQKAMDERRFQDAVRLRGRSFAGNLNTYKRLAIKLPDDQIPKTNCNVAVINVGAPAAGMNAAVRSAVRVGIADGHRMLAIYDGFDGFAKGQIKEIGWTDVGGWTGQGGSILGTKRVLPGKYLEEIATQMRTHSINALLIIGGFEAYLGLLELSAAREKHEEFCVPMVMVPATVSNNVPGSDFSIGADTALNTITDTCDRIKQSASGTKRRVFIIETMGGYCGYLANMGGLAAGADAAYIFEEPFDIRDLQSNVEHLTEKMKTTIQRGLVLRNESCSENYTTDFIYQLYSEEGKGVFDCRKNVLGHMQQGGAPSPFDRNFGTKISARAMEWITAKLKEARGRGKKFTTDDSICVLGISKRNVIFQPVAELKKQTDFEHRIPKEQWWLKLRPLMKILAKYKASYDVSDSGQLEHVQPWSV
In words: ALDO-TIM-G3PDH enzyme-linked kinetic assay, PFK-P. The format is biochemical. Particulars: modulator 1100 µM. The protocol:
as §1, §2, §3

A further test relates to PFKP. The conditions noted are these: ref Sanchez-Martinez et al., 2000; cited from earlier work.
In test [1] the test system is monocyte-derived macrophages. On the set-up: method as in FANTOM5 database. The conditions noted are these: n = 3, ref FANTOM5 database, cited from earlier work.

A word on the IC50: it is the concentration that inhibits the measured activity by half.

Take `O=C1O[C@H]([C@@H](O)CO)C(O)=C1O` [Ascorbate]: in the test on PFK, the “Effect (activator or inhibitor of PFK)” value is “-”.
In the case of `O=C(COP(=O)(O)O)[C@@H](O)[C@H](O)[C@H](O)COP(=O)(O)O` [F16BP, fructose 1,6-bisphosphate], in the test with PFKL, the IC50 or AC50 (activator) was 40 µM. In the test with PFKM, the EC50 is 1.5 µM. In addition, the “Effect (activator or inhibitor of PFK)” value in the test with PFK is recorded as “+”.
Regarding `O=P(O)(O)OC[C@H]1O[C@H](OP(=O)(O)O)[C@H](O)[C@@H](O)[C@@H]1O` [G16BP], in the test on PFKL, the “IC50 or AC50 (activator)” value was 100 µM. The “Effect (activator or inhibitor of PFK)” value in the test on PFK was “+”.
As for `Nc1nc2c(ncn2[C@@H]2O[C@H](COP(=O)(O)OP(=O)(O)O)[C@@H](O)[C@H]2O)c(=O)[nH]1` [GDP], the entries for the “change in kcat^ATP/K0.5^ATP compared with control PFK without modulator” value on recombinant human PFK-L, on recombinant human PFK-M and on recombinant human PFK-P were −48%, “+4.3%” and −0.2%, respectively. In addition, the “K0.5ATP + modulator” value at recombinant human PFK-L (F6P 4mM, N=3, mean (SD)) was 404.4 (65.6) M; on recombinant human PFK-P (F6P 4mM, N=3, mean (SD)) it was 924.6 (367.7) M. Moreover, the “VmaxATP + modulator” value at recombinant human PFK-L (F6P 4mM, N=3, mean (SD)) is 44.20 (2.84) moles/min/mg; at recombinant human PFK-P (F6P 4mM, N=3, mean (SD)), 31.48 (4.42) moles/min/mg.
On to `[K+]` [K+], for which the “Effect (activator or inhibitor of PFK)” value in the test on PFK is “+”.
For `N` [NH4+], the “IC50 or AC50 (activator)” value in the test with PFKP is 400 µM. Further, the “Effect (activator or inhibitor of PFK)” value with PFK was “+”.
Consider `O=P(O)(O)O` [PO4 3-], for which the “IC50 or AC50 (activator)” value with PFKP was 300 µM. Moreover, in the test on PFK, the “Effect (activator or inhibitor of PFK)” value was “+”.
For `Nc1nc2c(ncn2[C@@H]2O[C@@H]3COP(=O)(O)O[C@H]3[C@H]2O)c(=O)[nH]1` [cGMP], the “Effect (activator or inhibitor of PFK)” value with PFK is on record as “-”.
Turning to Actin, in the test on PFK, the “Effect (activator or inhibitor of PFK)” value is recorded as “+”.
On to Lactate, for which, in the test with PFK, the “Effect (activator or inhibitor of PFK)” value is on record as “-”. The IC50 in the test on PFK (value marked *, asterisk not explained, ref Costa Leite et al., 2007, read-out: IC50 or AC50 (inhibitor)) was 4600 µM.
On to lipopolysaccharide [LPS], for which the PFK-P transcript level in test [1] (monocyte-derived macrophages activated by LPS) was 10.3 × baseline. The PFK-L transcript level in test [1] (monocyte-derived macrophages after LPS stimulation) is 1.9 × baseline.

B1: Band 3: protein, PFK inhibitor in the published literature (protein, UniProt P02730 1-911, looked up)
Band 3 anion transport protein: MEELQDDYEDMMEENLEQEEYEDPDIPESQMEEPAAHDTEATATDYHTTSHPGTHKVYVELQELVMDEKNQELRWMEAARWVQLEENLGENGAWGRPHLSHLTFWSLLELRRVFTKGTVLLDLQETSLAGVANQLLDRFIFEDQIRPQDREELLRALLLKHSHAGELEALGGVKPAVLTRSGDPSQPLLPQHSSLETQLFCEQGDGGTEGHSPSGILEKIPPDSEATLVLVGRADFLEQPVLGFVRLQEAAELEAVELPVPIRFLFVLLGPEAPHIDYTQLGRAAATLMSERVFRIDAYMAQSRGELLHSLEGFLDCSLVLPPTDAPSEQALLSLVPVQRELLRRRYQSSPAKPDSSFYKGLDLNGGPDDPLQQTGQLFGGLVRDIRRRYPYYLSDITDAFSPQVLAAVIFIYFAALSPAITFGGLLGEKTRNQMGVSELLISTAVQGILFALLGAQPLLVVGFSGPLLVFEEAFFSFCETNGLEYIVGRVWIGFWLILLVVLVVAFEGSFLVRFISRYTQEIFSFLISLIFIYETFSKLIKIFQDHPLQKTYNYNVLMVPKPQGPLPNTALLSLVLMAGTFFFAMMLRKFKNSSYFPGKLRRVIGDFGVPISILIMVLVDFFIQDTYTQKLSVPDGFKVSNSSARGWVIHPLGLRSEFPIWMMFASALPALLVFILIFLESQITTLIVSKPERKMVKGSGFHLDLLLVVGMGGVAALFGMPWLSATTVRSVTHANALTVMGKASTPGAAAQIQEVKEQRISGLLVAVLVGLSILMEPILSRIPLAVLFGIFLYMGVTSLSGIQLFDRILLLFKPPKYHPDVPYVKRVKTWRMHLFTGIQIICLAVLWVVKSTPASLALPFVLILTVPLRRVLLPLIFRNVELQCLDADDAKATFDEEEGRDEYDEVAMPV
Turning to B1, the “Effect (activator or inhibitor of PFK)” value with PFK was “-”.

Values taken from PMC7702303, “Biochemical and transcript level differences between the three human phosphofructokinases show optimisation of each isoform for specific metabolic niches” (Biochemical Journal, 2020).
